Patent publication US10375956B2, “Herbicidally active 2-(substituted-phenyl)-cyclopentane-1,3-dione compounds and derivatives thereof” (Syngenta Limited, priority 2013, dated 2019)

How the values were obtained:
Format in all cases: in vivo
[1] = test system: Triticum aestivum (TRZAW, winter wheat); assay: Test 2 glasshouse assay (IF50 formulation, X-77), post-emergence herbicidal activity; conditions: 360 h, 15 DAA, read-out: Post-emergence herbicidal activity (percentage phytotoxicity) TRZAW; for plant injury at 30 g/ha: application rate 30 g/ha; for plant injury at 30 g/ha / plant injury at 125 g/ha: visual score; for plant injury at 125 g/ha: application rate 125 g/ha
Outline: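 Plants grown ~12 days (range 10-13) in glasshouse (cool species 20/16° C., warm 24/18° C. day/night; 16 h light; 65% humidity), then sprayed post-emergence with IF50 formulation in aqueous 0.2% v/v X-77. Visual percentage phytotoxicity scored 15 days after application (100% = total damage, 0% = none).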

[2] = test system: Alopecurus myosuroides (ALOMY); assay: Test 1 glasshouse assay, pre-emergence herbicidal activity; conditions: 312 h, visual evaluation after 13 days, read-out: Percentage phytotoxicity ALOMY
Outline: (§1)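 Pre-emergence: test species sown in soil and sprayed one day after sowing with active ingredient in acetone/water (50:50) with 0.5% Tween 20. Grown at 24/16 °C day/night, 14 h light, 65% humidity; visual phytotoxicity scored after 13 days (0% no damage, 100% total damage).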

[3] = test system: Zea mays (ZEAMX, corn/maize); assay: as above; conditions: 312 h, visual evaluation after 13 days, read-out: Percentage phytotoxicity ZEAMX
Outline: as §1

[4] = test system: Setaria faberi (SETFA); assay: as above; conditions: 312 h, visual evaluation after 13 days, read-out: Percentage phytotoxicity SETFA
Outline: as §1

[5] = test system: Abutilon theophrasti (ABUTH); assay: as above; conditions: 312 h, visual evaluation after 13 days, read-out: Percentage phytotoxicity ABUTH
Outline: as §1

[6] = test system: Panicum miliaceum (PANMI); assay: Test 2 glasshouse assay (IF50 formulation, X-77), pre-emergence herbicidal activity; conditions: 480 h, 20DAA, read-out: Percentage phytotoxicity PANMI
Experimental: (§2) Seeds of a variety of monocotyledonous and dicotyledonous test plants are sown in standard soil in pots. The plants are cultivated for one day (for pre-emergence) or for about 12 days (for post-emergence) under controlled conditions in a glasshouse (warm climate species at 24/18° C., cool climate species at 20/16° C., both at day/night; 16 hours light; 65% humidity).
(§3) An “instant formulation”, known as the “IF50”, containing 50 g/liter (i.e. 5% w/v) of the “technical” (i.e. unformulated) active ingredient is prepared by dissolving the active ingredient in a mixture of organic solvents and emulsifier, details of which are provided in the Table below. This IF50 is then mixed with a small, variable amount of acetone to aid dissolution, before addition of a 0.2% v/v aqueous solution of the adjuvant X-77 (which is a mixture of alkyl aryl polyoxyethylene glycols and free fatty acids in isopropanol, CAS Registry number 11097-66-8), as the aqueous diluent, to form an aqueous spray solution which contains a predetermined concentration of the active ingredient (which varies depending on the application rate of the active ingredient to the plants) and 0.2% v/v of the adjuvant X-77. This aqueous spray solution is then sprayed onto the plants, after one day's cultivation (for pre-emergence), or after about 12 days' cultivation (range=10-13 days) (for post-emergence).
(§4) The test plants are then grown on, in a glasshouse (greenhouse) under controlled conditions (warm climate species at 24/18° C., cool climate species at 20/16° C., both at day/night; 16 hours light; 65% humidity) and are watered twice daily. 15 days after application of the test herbicide (15DAA) (for post-emergence), and 20 days after application of the test herbicide (20DAA) (for pre-emergence), the test plants are evaluated visually, and an assessed percentage phytotoxicity score is given for each herbicidal application on each plant species (with 100%=total damage to plant; 0%=no damage to plant).
(§5) Warm climate (“warm season”) grassy monocotyledonous weeds: Setaria faberi (SETFA), Panicum miliaceum (PANMI), Sorghum vulgare Pers. (SORVU) (or Sorghum bicolor (L) Moench ssp. Bicolor), Digitaria sanguinalis (DIGSA), Echinochloa crus-galli (ECHCG), and Brachiaria plantaginea (BRAPL).

[7] = test system: Echinochloa crus-galli (ECHCG); assay: as above; conditions: 480 h, 20DAA, read-out: Percentage phytotoxicity ECHCG
Experimental: as §2, §3, §4, §5

[8] = test system: Brachiaria plantaginea (BRAPL); assay: as above; conditions: Urochloa plantaginea, 480 h, 20DAA, read-out: Percentage phytotoxicity BRAPL
Experimental: as §2, §3, §4, §5

[9] = test system: Digitaria sanguinalis (DIGSA); assay: as above; conditions: 480 h, 20DAA, read-out: Percentage phytotoxicity DIGSA
Experimental: as §2, §3, §4, §5

[10] = test system: Sorghum vulgare Pers. (SORVU); assay: as above; conditions: Sorghum bicolor, 480 h, 20DAA, read-out: Percentage phytotoxicity SORVU
Experimental: as §2, §3, §4, §5

[11] = test system: Setaria faberi (SETFA); assay: as above; conditions: 480 h, 20DAA, read-out: Percentage phytotoxicity SETFA
Experimental: as §2, §3, §4, §5

[12] = test system: Avena fatua (AVEFA); assay: Test 2 glasshouse assay (IF50 formulation, X-77), post-emergence herbicidal activity; conditions: 360 h, 15 DAA, visual score, read-out: Post-emergence herbicidal activity (percentage phytotoxicity) AVEFA; for pest or weed control at 30 g/ha: application rate 30 g/ha; for pest or weed control at 125 g/ha: application rate 125 g/ha
Experimental: as §2, §3, §4
(§6) Cool climate (“cool season”) grassy monocotyledonous weeds: Alopecurus myosuroides (ALOMY), Avena fatua (AVEFA), Lolium perenne (LOLPE).

[13] = test system: Alopecurus myosuroides (ALOMY); assay: as above; conditions: 360 h, 15 DAA, visual score, read-out: Post-emergence herbicidal activity (percentage phytotoxicity) ALOMY; for pest or weed control at 30 g/ha: application rate 30 g/ha; for pest or weed control at 125 g/ha: application rate 125 g/ha
Experimental: as §2, §3, §4, §6

[14] = test system: Lolium perenne (LOLPE); assay: as above; conditions: 360 h, 15 DAA, visual score, read-out: Post-emergence herbicidal activity (percentage phytotoxicity) LOLPE; for pest or weed control at 30 g/ha: application rate 30 g/ha; for pest or weed control at 125 g/ha: application rate 125 g/ha
Experimental: as §2, §3, §4, §6

| Compound | plant injury at 30 g/ha [1] | plant injury at 125 g/ha [1] | pest or weed control at 250 g/ha [2] | pest or weed control at 250 g/ha [3] | pest or weed control at 250 g/ha [4] | pest or weed control at 250 g/ha [5] | pest or weed control at 250 g/ha [6] | pest or weed control at 250 g/ha [7] | pest or weed control at 250 g/ha [8] | pest or weed control at 250 g/ha [9] | pest or weed control at 250 g/ha [10] | pest or weed control at 250 g/ha [11] | pest or weed control at 30 g/ha [12] | pest or weed control at 125 g/ha [12] | pest or weed control at 30 g/ha [13] | pest or weed control at 125 g/ha [13] | pest or weed control at 30 g/ha [14] | pest or weed control at 125 g/ha [14] | pest or weed control at 125 g/ha [6] | pest or weed control at 125 g/ha [7] | other results |
| --- | --- | --- | --- | --- | --- | --- | --- | --- | --- | --- | --- | --- | --- | --- | --- | --- | --- | --- | --- | --- | --- |
| C#CCC1CC(=O)C(c2c(Cl)cc(-c3ccc(F)cc3F)cc2OC)C1=O (centres unmarked) [Compound A12] | 40% | 80% | 90% | 100% | 100% | 80% | 100% | 80% | 100% | 100% | 90% | 100% | 10% | 80% | 60% | 80% | 30% | 90% |  |  |  |
| C#CCC1CC(=O)C(c2c(Cl)cc(-c3ccc(F)c(F)c3)cc2OC)C1=O (centres unmarked) [Compound A13] | 40% | 80% | 90% | 100% | 100% | 80% | 100% | 100% | 100% | 100% | 100% | 100% | 30% | 80% | 30% | 100% | 10% | 80% |  |  |  |
| C#CCC1CC(=O)C(c2c(C)cc(-c3ccc(F)cc3)cc2C)C1=O (centres unmarked) [Compound A1, 2-[4-(4-fluorophenyl)-2,6-dimethyl-phenyl]-4-prop-2-ynylcyclopentane-1,3-dione] | 80% | 80% | 100% |  | 90% |  |  |  |  |  |  |  | 70% | 100% | 60% | 80% | 70% | 80% | 100% | 90% | pest or weed control at 125 g/ha [8]: 90%; pest or weed control at 125 g/ha [9]: 100%; pest or weed control at 125 g/ha [10]: 90%; pest or weed control at 125 g/ha [11]: 100% |
| C#CCC1CC(=O)C(c2c(CC)cc(C)cc2CC)C1=O (centres unmarked) [Compound A25, 2-(2,6-diethyl-4-methyl-phenyl)-4-(prop-2-ynyl)-cyclopentane-1,3-dione] | 10% | 60% | 100% |  |  |  | 90% | 100% | 100% | 100% | 90% | 80% | 80% | 100% | 50% | 80% | 90% | 100% |  |  |  |
| C#CCC1CC(OC(C)=O)=C(c2c(C)cc(-c3ccc(F)cc3)cc2C)C1=O (centres unmarked) [Compound A45] | 80% | 80% | 100% |  | 60% |  |  |  |  |  |  |  | 70% | 90% | 70% | 90% | 80% | 100% | 100% | 80% | pest or weed control at 125 g/ha [8]: 90%; pest or weed control at 125 g/ha [9]: 90%; pest or weed control at 125 g/ha [10]: 80%; pest or weed control at 125 g/ha [11]: 90% |
| C#CCC1C(=O)C(c2c(C)cc(C)cc2C)C(=O)C1CC#C (centres unmarked) [Compound A42] |  | 0% | 100% |  |  |  |  |  |  |  |  |  |  | 0% |  | 50% |  | 80% |  |  | plant injury at 500 g/ha ([1]; application rate 500 g/ha, visual score 100%=total damage, 0%=no damage): 10%; pest or weed control at 500 g/ha ([6]; 500 g/ha): 100%; pest or weed control at 500 g/ha ([7]; 500 g/ha): 100%; pest or weed control at 500 g/ha ([8]; 500 g/ha): 100%; pest or weed control at 500 g/ha ([9]; 500 g/ha): 70%; pest or weed control at 500 g/ha ([10]; 500 g/ha): 80%; pest or weed control at 500 g/ha ([11]; 500 g/ha): 80%; pest or weed control at 500 g/ha ([12]; application rate 500 g/ha): 50%; pest or weed control at 500 g/ha ([13]; application rate 500 g/ha): 70%; pest or weed control at 500 g/ha ([14]; application rate 500 g/ha): 100% |
